Where “and” joins values, the source holds several entries; their conditions need not be identical. Identical values can stand only once.
Experiments:
Details in all cases: incubation time: 72 h
BT-549 [1] = assay: drug sensitivity score (DSS), CellTox Green (DSS (AUC-based score)); higher = stronger drug effect (viability inhibition or cytotoxicity); extreme values may be limits of the assay
Method in brief: (§1)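 Plates with 384 wells held compound at 5 concentrations in 10-fold steps over a 10,000-fold range specific to each compound. Breast cancer cell lines were added in 20 µl suspension and incubated 72 h, then read for CellTox Green and CellTiter-Glo signals, with each plate normalised to 0.1 % DMSO and a positive kill control. The drug sensitivity score is based on the area under the fitted dose-response curve.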

HCC1937 [2] = assay: as above
Method in brief: as §1

MDA-MB-436 [3] = assay: as above
Method in brief: as §1

HDQ-P1 [4] = assay: as above
Method in brief: as §1

MDA-MB-231 [5] = assay: as above
Method in brief: as §1

HCC1599 [6] = assay: as above
Method in brief: as §1

MDA-MB-453 = assay: normalised viability (% of control), CellTiter-Blue; higher = more viable cells (about 100 = DMSO control)
Method in brief: (§2)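 Breast cancer cell lines were treated for 72 h in 384-well format and measured by CellTiter-Blue fluorescence at 560/590 nm. Results were normalised per plate to vehicle (100) and a positive kill control (0). The entry is normalised viability at a single listed concentration of the series.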

MFM-223 = assay: as above
Method in brief: as §2

BT-549 [7] = assay: as above
Method in brief: as §2

MDA-MB-468 = assay: as above
Method in brief: as §2

HCC1937 [8] = assay: as above
Method in brief: as §2

DU-4475 = assay: as above
Method in brief: as §2

CAL-120 = assay: as above
Method in brief: as §2

CAL-85-1 = assay: as above
Method in brief: as §2

Hs578T = assay: as above
Method in brief: as §2

SK-BR-3 = assay: as above
Method in brief: as §2

HCC1143 = assay: as above
Method in brief: as §2

CAL-51 = assay: as above
Method in brief: as §2

MDA-MB-436 [9] = assay: as above
Method in brief: as §2

BT-474 = assay: as above
Method in brief: as §2

HDQ-P1 [10] = assay: as above
Method in brief: as §2

CAL-148 = assay: as above
Method in brief: as §2

MDA-MB-231 [11] = assay: as above
Method in brief: as §2

HCC1599 [12] = assay: as above
Method in brief: as §2

Nc1cccc2c1CN(C1CCC(=O)NC1=O)C2=O (stereo not given) [Lenalidomide]
Details | drug sensitivity score
BT-549 [1] | 0
HCC1599 [6] | 0
HCC1937 [2] | 0
HDQ-P1 [4] | 0
MDA-MB-231 [5] | 0
MDA-MB-436 [3] | 0

normalised viability
Details | 3 nM | 10 nM | 30 nM | 100 nM | 1000 nM | 10000 nM
BT-474 | – | 104% and 109% | – | – | 117% and 107% | 117% and 104%
BT-549 [7] | – | 94.5% and 88.9% | – | – | 94.5% and 95.7% | 89.3% and 101%
CAL-51 | 106% and 108% | – | 99.4% and 99.6% | 99.9% and 97.6% | – | –
CAL-85-1 | 82.3% and 93% | – | 76.5% and 84.1% | 86% and 96.7% | – | –
CAL-120 | – | 76% and 81.3% | – | – | 80.2% and 81.1% | 84.4% and 80.2%
CAL-148 | 78.6% and 91.8% | – | 86% and 94.3% | 86.9% and 89.8% | – | –
DU-4475 | 92.4% and 107% | – | 89.8% and 80.5% | 94.3% and 93.8% | – | –
HCC1143 | – | 76.4% and 66.6% | – | – | 89.1% and 70% | 72% and 72.4%
HCC1599 [12] | – | 82.8% and 82.1% | – | – | 91.9% and 86.6% | 113% and 103%
HCC1937 [8] | – | 92.3% and 85.5% | – | – | 86.2% and 84.6% | 78.2% and 87.7%
HDQ-P1 [10] | 95.7% and 91.8% | – | 106% and 83.8% | 92.3% and 86.8% | – | –
Hs578T | – | 107% and 99.5% | – | – | 111% and 97.7% | 100% and 95.5%
MDA-MB-231 [11] | – | 89% and 86.3% | – | – | 79.1% and 103% | 92.3% and 103%
MDA-MB-436 [9] | – | 98.1% and 99.7% | – | – | 85% and 101% | 107% and 112%
MDA-MB-453 | 107% and 106% | – | 89.3% and 94.9% | 96.6% and 103% | – | –
MDA-MB-468 | – | 103% and 111% | – | – | 105% and 99.7% | 93.5% and 106%
MFM-223 | – | 87.7% and 85.8% | – | – | 90.2% and 96.7% | 100% and 104%
SK-BR-3 | – | 104% and 93.7% | – | – | 94.7% and 95.1% | 86.8% and 101%

C[C@]12O[C@H](C[C@]1(O)CO)n1c3ccccc3c3c4c(c5c6ccccc6n2c5c31)CNC4=O [Lestaurtinib]
Details | drug sensitivity score
BT-549 [1] | 2.26
HCC1599 [6] | 4.55
HCC1937 [2] | 0
HDQ-P1 [4] | 0
MDA-MB-231 [5] | 0.0124
MDA-MB-436 [3] | 8.14

normalised viability [%]
Details | 0.3 nM | 1 nM | 3 nM | 10 nM | 100 nM | 1000 nM
BT-474 | – | 120 | – | – | 110 | 69
BT-549 [7] | – | 88.3 | – | – | 101 | 41.8
CAL-51 | 113 | – | 108 | 106 | – | –
CAL-85-1 | 106 | – | 97.8 | 102 | – | –
CAL-120 | – | 108 | – | – | 60.7 | 47.5
CAL-148 | 96.8 | – | 98.6 | 98.3 | – | –
DU-4475 | 93.2 | – | 104 | 100 | – | –
HCC1143 | – | 107 | – | – | 89.8 | 61.6
HCC1599 [12] | – | 102 | – | – | 94.6 | 64.8
HCC1937 [8] | – | 89 | – | – | 77.4 | 31.3
HDQ-P1 [10] | 119 | – | 112 | 126 | – | –
Hs578T | – | 110 | – | – | 122 | 63.3
MDA-MB-231 [11] | – | 112 | – | – | 104 | 62.6
MDA-MB-436 [9] | – | 102 | – | – | 93.4 | 55.5
MDA-MB-453 | 126 | – | 98.4 | 104 | – | –
MDA-MB-468 | – | 107 | – | – | 106 | 51
MFM-223 | – | 97.6 | – | – | 80.9 | 42.8
SK-BR-3 | – | 108 | – | – | 102 | 37.2

O=C1c2c(O)ccc(O)c2C(=O)c2c(NCCNCCO)ccc(NCCNCCO)c21 [Mitoxantrone]
Details | drug sensitivity score
BT-549 [1] | 0
HCC1599 [6] | 0
HCC1937 [2] | 0
HDQ-P1 [4] | 0
MDA-MB-231 [5] | 0
MDA-MB-436 [3] | 0

normalised viability [%]
Details | 0.3 nM | 1 nM | 3 nM | 10 nM | 100 nM | 1000 nM
BT-474 | – | 99.4 | – | – | 71.1 | 42
BT-549 [7] | – | 82.4 | – | – | 69 | 35.4
CAL-51 | 112 | – | 111 | 61.3 | – | –
CAL-85-1 | 90.3 | – | 84.3 | 86.5 | – | –
CAL-120 | – | 73.8 | – | – | 44.6 | 17.3
CAL-148 | 91.2 | – | 91.5 | 57.9 | – | –
DU-4475 | 89 | – | 91.3 | 45.8 | – | –
HCC1143 | – | 83.4 | – | – | 56.6 | 31.2
HCC1599 [12] | – | 97.6 | – | – | 73.3 | 69.8
HCC1937 [8] | – | 65.7 | – | – | 25 | 23.7
HDQ-P1 [10] | 74.8 | – | 86.7 | 79.2 | – | –
Hs578T | – | 91.6 | – | – | 77.5 | 38.4
MDA-MB-231 [11] | – | 82 | – | – | 44.2 | 17.4
MDA-MB-436 [9] | – | 87.2 | – | – | 88.3 | 40.1
MDA-MB-453 | 98.7 | – | 87.1 | 74 | – | –
MDA-MB-468 | – | 97.1 | – | – | 57.3 | 37.4
MFM-223 | – | 73.8 | – | – | 84.4 | 35.2
SK-BR-3 | – | 84.2 | – | – | 34.6 | 14.8

Reference: the supplement of paper PMC4862054
